From US20110086834A1, “ALKYNYL ALCOHOLS AS KINASE INHIBITORS” (AMGEN INC., priority 2008, published 2011)
pKi: −log10 of the molar value.

biological target: T1, NIK (Homo sapiens, UniProt Q99558); assay: homogenous time resolved fluorescence (HTRF) assay for NIK Ki measurement; type: biochemical; details: truncated NIK (catalytic domain only), autophosphorylation; 10 nM enzyme; 20, 100, 200 or 500 μM ATP; room temperature, 2 hours; read-out: Ki activity in the homogenous time resolved fluorescence (HTRF) assay for NIK
T1 construct: Both assays utilize a truncated form of NIK containing only the catalytic domain; made in house; host or cells: baculovirus expression system (insect cells implied)
T1 sequence (Q99558 400-655 limits assumed): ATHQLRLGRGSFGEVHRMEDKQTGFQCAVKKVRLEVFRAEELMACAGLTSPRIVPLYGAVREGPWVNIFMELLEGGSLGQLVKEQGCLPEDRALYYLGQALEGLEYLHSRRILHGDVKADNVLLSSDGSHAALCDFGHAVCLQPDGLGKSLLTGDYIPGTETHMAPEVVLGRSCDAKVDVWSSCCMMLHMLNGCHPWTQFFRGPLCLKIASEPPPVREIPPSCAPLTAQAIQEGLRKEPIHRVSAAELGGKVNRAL

SMILES | pKi
CN1CCC2(CC1)CN(c1nc(N)ncc1Cl)c1cc(C#CC3(O)CCCC3)ccc12 [Example 185, 1-((1-(2-Amino-5-chloro-4-pyrimidinyl)-1′-methyl-1,2-dihydrospiro[indole-3,4′-piperidin]-6-yl)ethynyl)cyclopentanol] | > 6.00
CNc1nccc(-c2c[nH]c3ccc(C#CC4(O)CCCC4)cc23)n1 [Example 111, 1-(2-(3-(2-(methylamino)pyrimidin-4-yl)-1H-indol-5-yl)ethynyl)cyclopentanol] | > 6.00
CNc1ncc2c(n1)-c1c(nc3ccc(C#CC4(O)CCCC4)cn13)CCC2 [Example 251, 1-((2-(methylamino)-6,7-dihydro-5H-pyrido[1″,2″:1′,2′]imidazo[4′,5′:6,7]-cyclohepta[1,2-d]pyrimidin-11-yl)ethynyl)cyclopentanol] | 4.52 to 6.00
Cc1cc(C(C)(O)C#Cc2ccc(CN3CCOCC3)c(Nc3nc(N)ncc3Cl)c2)no1 (centres unmarked) [Example 158, 4-(3-(2-Amino-5-chloropyrimidin-4-ylamino)-4-(morpholinomethyl)phenyl)-2-(5-methylisoxazol-3-yl)but-3-yn-2-ol] | > 6.00
COc1cc(C#CC2(O)CCCC2)cc2c1ccn2-c1nc(N)ncc1F [Example 102, 1-((1-(2-amino-5-fluoropyrimidin-4-yl)-4-methoxy-1H-indol-6-yl)ethynyl)cyclopentanol] | > 6.00
Cc1[nH]c2ccc(C#CC(C)(O)c3nccs3)cc2c1-c1ccncc1 (centres unmarked) [Example 295, 4-(2-Methyl-3-(4-pyridinyl)-1H-indol-5-yl)-2-(1,3-thiazol-2-yl)-3-butyn-2-ol] | > 6.00
CCN(CC)CCNC(=O)c1ccc(Nc2nccc(N3CCc4ccc(C#CC5(O)CCCC5)cc43)n2)cc1 [Example 262, N-(2-(diethylamino)ethyl)-4-((4-(6-((1-hydroxycyclopentyl)ethynyl)-2,3-dihydro-1H-indol-1-yl)-2-pyrimidinyl)amino)benzamide] | > 6.00
CC(O)(C#Cc1ccc2ccn(-c3ccncc3)c2c1)c1nccs1 (centres unmarked) [Example 299, 4-(1-(4-Pyridinyl)-1H-indol-6-yl)-2-(1,3-thiazol-2-yl)-3-butyn-2-ol] | > 6.00
N#Cc1cnc(N)nc1-c1c[nH]c2ccc(C#CC3(O)CCCC3)cc12 [Example 108, 2-amino-4-(5-(2-(1-hydroxycyclopentyl)ethynyl)-1H-indol-3-yl)pyrimidine-5-carbonitrile] | > 6.00
COCCNC(=O)c1[nH]c2ccc(C#CC3(O)CCCC3)cc2c1-c1ccnc(N)n1 [Example 96, 3-(2-aminopyrimidin-4-yl)-5-(2-(1-hydroxycyclopentyl)ethynyl)-N-(2-methoxyethyl)-1H-indole-2-carboxamide] | > 6.00
Nc1ncc(Cl)c(Nc2cc(C#CC3(O)CCCC3)ccc2OC2CCOCC2)n1 [Example 149, 1-(2-(3-(2-Amino-5-chloropyrimidin-4-ylamino)-4-(tetrahydro-2H-pyran-4-yloxy)phenyl)ethynyl)cyclopentanol] | > 6.00
CC(O)(C#Cc1ccc2c(c1)N(c1ccnc(N)n1)CC2)c1cccnc1 (centres unmarked) [Example 290, 4-(1-(2-Amino-4-pyrimidinyl)-2,3-dihydro-1H-indol-6-yl)-2-(3-pyridinyl)-3-butyn-2-ol] | > 6.00
Cc1ccc(C#CC(C)(O)c2nccs2)cc1Nc1ccncc1 (centres unmarked) [Example 172, 4-(4-Methyl-3-(pyridin-4-ylamino)phenyl)-2-(thiazol-2-yl)but-3-yn-2-ol] | 4.52 to 6.00
Nc1nccc(C2=CC3(CCOCC3)c3ccc(C#CC4(O)CCCC4)cc32)n1 [Example 220, 1-((3-(2-Amino-4-pyrimidinyl)-2′,3′,5′,6′-tetrahydrospiro[indene-1,4′-pyran]-5-yl)ethynyl)cyclopentanol] | > 6.00
COCCOc1cnc(N)nc1-c1c[nH]c2ccc(C#CC3(O)CCC3)cc12 [Example 225, 1-((3-(2-Amino-5-(2-methoxyethoxy)-4-pyrimidinyl)-1H-indol-5-yl)ethynyl)cyclobutanol] | > 6.00
CC(O)(C#Cc1ccc2c(c1)N(c1ccnc(N)n1)CC2)C1CCCC1 (centres unmarked) [Example 293, 4-(1-(2-Amino-4-pyrimidinyl)-2,3-dihydro-1H-indol-6-yl)-2-cyclopentyl-3-butyn-2-ol] | > 6.00

Next, values leading:

pKi | SMILES
> 6.00 | CC(O)(C#Cc1ccc(F)c(Nc2nc(N)ncc2Cl)c1)c1nccs1 (centres unmarked) [Example 166, 4-(3-(2-Amino-5-chloropyrimidin-4-ylamino)-4-fluorophenyl)-2-(thiazol-2-yl)but-3-yn-2-ol]
4.52 to 6.00 | Cc1cc(C(C)(O)C#Cc2ccc3c(c2)N(c2ccnc(N)n2)CC3)c(C)o1 (centres unmarked) [Example 279, 4-(1-(2-Amino-4-pyrimidinyl)-2,3-dihydro-1H-indol-6-yl)-2-(2,5-dimethyl-3-furanyl)-3-Butyn-2-ol]
> 6.00 | Cn1ccc(C(C)(O)C#Cc2ccc3c(c2)N(c2nc(N)ncc2Cl)CC3)n1 (centres unmarked) [Example 26, 4-(1-(2-amino-5-chloropyrimidin-4-yl)indolin-6-yl)-2-(1-methyl-1H-pyrazol-3-yl)but-3-yn-2-ol]
4.52 to 6.00 | CC(O)(C#Cc1ccc2c(c1)N(c1nc(N)ncc1Cl)CC2)c1cc(N2CCCCC2)ccn1 (centres unmarked) [Example 10, 4-(1-(2-amino-5-chloropyrimidin-4-yl)indolin-6-yl)-2-(4-(piperidin-1-yl)pyridin-2-yl)but-3-yn-2-ol]
> 6.00 | CC(O)(C#Cc1ccc2c(c1)N(c1nc(N)ncc1Cl)CC21CCOC1)c1nccs1 (racemic) [Example 198, 4-(1′-(2-Amino-5-chloro-4-pyrimidinyl)-1′,2′,4,5-tetrahydrospiro[furan-3,3′-indol]-6′-yl)-2-(1,3-thiazol-2-yl)-3-butyn-2-ol]
> 6.00 | Cc1cnc(C(C)(O)C#Cc2ccc3c(c2)N(c2nc(N)ncc2Cl)CC3(C)C)s1 (centres unmarked) [Example 303, 4-(1-(2-Amino-5-chloro-4-pyrimidinyl)-3,3-dimethyl-2,3-dihydro-1H-indol-6-yl)-2-(5-methyl-1,3-thiazol-2-yl)-3-butyn-2-ol]
> 6.00 | Cc1cc(C(C)(O)C#Cc2ccc3c(c2)N(c2nc(N)ncc2Cl)CC3(C)C)no1 (centres unmarked) [Example 3, 4-(1-(2-amino-5-chloropyrimidin-4-yl)-3,3-dimethylindolin-6-yl)-2-(5-methylisoxazol-3-yl)but-3-yn-2-ol]
> 6.00 | CC(O)(C#Cc1ccc2c(c1)N(c1nc(N)ncc1Cl)CC2(C)C)c1ncco1 (centres unmarked) [Example 305, 4-(1-(2-Amino-5-chloro-4-pyrimidinyl)-3,3-dimethyl-2,3-dihydro-1H-indol-6-yl)-2-(1,3-oxazol-2-yl)-3-Butyn-2-ol]
4.52 to 6.00 | Cc1cc([C@@](C)(O)C#Cc2ccc3c(c2)N(c2nc(N)ncc2Cl)CC3)no1 (single isomer, unassigned) [Example 24]
> 6.00 | CN1CCOC2(C1)CN(c1nc(N)ncc1Cl)c1cc(C#C[C@@](C)(O)c3nccs3)ccc12 (stereo partly drawn) [Example 36, (2R)-4-[1-(2-amino-5-chloropyrimidin-4-yl)-4′-methyl-1,2-dihydrospiro[indole-3,2′-[1,4]oxazinan]-6-yl]-2-(1,3-thiazol-2-yl)but-3-yn-2-ol]
> 6.00 | C[C@@](O)(C#Cc1ccc2c(c1)N(c1nc(N)ncc1Cl)CC21COC1)c1nccs1 (single isomer, unassigned) [Example 82]
> 6.00 | Cn1cnc(C(O)C#Cc2ccc3c(c2)N(c2nc(N)ncc2Cl)CC3(C)C)c1 (centres unmarked) [Example 46, 3-(1-(2-amino-5-chloro-4-pyrimidinyl)-3,3-dimethyl-2,3-dihydro-1H-indol-6-yl)-1-(1-methyl-1H-imidazol-4-yl)-2-propyn-1-ol]
> 6.00 | Cc1ccc(C#CC(C)(O)c2nccs2)cc1Nc1nc(N)ncc1Cl (centres unmarked) [Example 160, 4-(3-(2-Amino-5-chloropyrimidin-4-ylamino)-4-methylphenyl)-2-(thiazol-2-yl)but-3-yn-2-ol]
4.52 to 6.00 | Cc1nc(C(C)(O)C#Cc2ccc3c(c2)N(c2ccnc(N)n2)CC3)sc1C (centres unmarked) [Example 285, 4-(1-(2-Amino-4-pyrimidinyl)-2,3-dihydro-1H-indol-6-yl)-2-(4,5-dimethyl-1,3-thiazol-2-yl)-3-Butyn-2-ol]
> 6.00 | CC(O)(C#Cc1ccc2c(c1)N(c1ncns1)CC2(C)C)c1cnccn1 (centres unmarked) [Example 13, 4-(3,3-dimethyl-1-(1,2,4-thiadiazol-5-yl)indolin-6-yl)-2-(pyrazin-2-yl)but-3-yn-2-ol]
4.52 to 6.00 | C[C@](O)(C#Cc1ccc2c(c1)N(c1nc(N)ncc1Cl)CC21CCOCC1)c1nccs1 (single isomer, unassigned) [Example 209a]
> 6.00 | C[C@@](O)(C#Cc1ccc(CN2CCOCC2)c(Nc2nc(N)ncc2Cl)c1)c1nccs1 [Example 163, (R)-4-(3-(2-Amino-5-chloropyrimidin-4-ylamino)-4-(morpholinomethyl)phenyl)-2-(thiazol-2-yl)but-3-yn-2-ol]
> 6.00 | CC(O)(C#Cc1ccc2c(c1)N(c1nc(N)ncc1Cl)CC2)c1ncc(C#N)s1 (centres unmarked) [Example 34, 2-(4-(1-(2-amino-5-chloropyrimidin-4-yl)indolin-6-yl)-2-hydroxybut-3-yn-2-yl)thiazole-5-carbonitrile]
> 6.00 | CN1CC[C@](O)(C#Cc2ccc3c(c2)N(c2nc(N)ncc2Cl)CC3(C)C)C1=O [Example 44, (3S)-3-((1-(2-amino-5-chloro-4-pyrimidinyl)-3,3-dimethyl-2,3-dihydro-1H-indol-6-yl)ethynyl)-3-hydroxy-1-methyl-2-pyrrolidinone]
> 6.00 | CCc1csc(C(C)(O)C#Cc2ccc3c(c2)N(c2nc(N)ncc2Cl)CC3)c1 (centres unmarked) [Example 22, 4-(1-(2-amino-5-chloropyrimidin-4-yl)indolin-6-yl)-2-(4-ethylthiophen-2-yl)but-3-yn-2-ol]
> 6.00 | Cc1cc([C@](C)(O)C#Cc2ccc3c(c2)N(c2nc(N)ncc2Cl)CC3)no1 (single isomer, unassigned) [Example 25]
> 6.00 | CC(C)(O)C#Cc1ccc2c(c1)N(c1nc(N)ncc1Cl)CC21CCS(=O)(=O)CC1 [Example 217, 4-(1-(2-Amino-5-chloro-4-pyrimidinyl)-1′,1′-dioxido-1,2,2′,3′,5′,6′-hexahydrospiro[indole-3,4′-thiopyran]-6-yl)-2-methyl-3-butyn-2-ol]
